Consider 20 compounds from ChEMBL document CHEMBL3091423, “Synthesis, antioxidant capacity, and structure-activity relationships of tri-O-methylnorbergenin analogues on tyrosinase inhibition” (Bioorg Med Chem Lett, 2013).

As usually defined, the IC50 is the concentration that gives 50% inhibition. Low readings indicate greater potency, high ones weaker potency. One may read the Ki as a dissociation constant, usually derived from enzyme kinetics or from competition with a known ligand.

Assay [1] deals with T1, Tyrosinase (Agaricus bisporus, UniProt O42713).
T1 sequence (O42713 whole entry): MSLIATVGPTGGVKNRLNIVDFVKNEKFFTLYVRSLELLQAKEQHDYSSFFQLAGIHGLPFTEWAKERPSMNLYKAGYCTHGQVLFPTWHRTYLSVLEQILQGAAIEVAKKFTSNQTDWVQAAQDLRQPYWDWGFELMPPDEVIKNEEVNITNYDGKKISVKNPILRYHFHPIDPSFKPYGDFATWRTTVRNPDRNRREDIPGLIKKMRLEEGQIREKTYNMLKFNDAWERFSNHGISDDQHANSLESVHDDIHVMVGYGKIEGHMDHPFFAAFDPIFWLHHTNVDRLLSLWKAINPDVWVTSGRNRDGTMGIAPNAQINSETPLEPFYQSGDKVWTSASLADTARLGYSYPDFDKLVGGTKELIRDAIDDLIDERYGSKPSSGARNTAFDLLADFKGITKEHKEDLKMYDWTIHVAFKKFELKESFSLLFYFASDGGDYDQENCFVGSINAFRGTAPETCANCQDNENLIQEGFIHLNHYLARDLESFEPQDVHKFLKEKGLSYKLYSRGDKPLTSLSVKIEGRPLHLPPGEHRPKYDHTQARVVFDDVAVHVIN
Description: (§1) Inhibition of mushroom tyrosinase using L-tyrosine as substrate preincubated for 10 mins followed by enzyme addition measured after 20 mins by microplate reader analysis

Assay [2] deals with T1, Tyrosinase. Description: Mixed inhibition of mushroom tyrosinase using L-tyrosine as substrate by Dixon/Cornish-Bowden plot analysis.
Assay [3] addresses T1, Tyrosinase. Description: Inhibition of mushroom tyrosinase using L-tyrosine as substrate by Dixon plot analysis.
In assay [4] the target is T2, Tyrosinase (Agaricus bisporus) (UniProt O42713).
T2 sequence (whole entry): T1 sequence (O42713 whole entry)
Description: as §1

The target in assay [5] is T1, Tyrosinase. Description: Uncompetitive inhibition of mushroom tyrosinase using L-tyrosine as substrate by Dixon/Cornish-Bowden plot analysis.

The compound `COc1cc2c(c(OC)c1OC)[C@@H]1O[C@H](COC(=O)c3ccc(O)c(O)c3)[C@@H](O)[C@H](O)[C@H]1OC2=O` displayed an IC50 against Tyrosinase [1] of 9.1 µM. Besides, the figures for the Ki at Tyrosinase [2] and at Tyrosinase [3] were 7.3 µM and 4.5 µM, respectively. Further, the inhibition result in assay [4] was “Dose-dependent effect”.

`COc1cc2c(c(OC)c1OC)[C@@H]1O[C@H](COC(=O)c3ccccc3)[C@@H](O)[C@H](O)[C@H]1OC2=O` registered an IC50 against Tyrosinase [1] greater than 100 µM.

On Tyrosinase [1], `COc1c(O)cc2c(c1O)[C@@H]1O[C@H](COC(=O)c3ccc(O)c(O)c3)[C@@H](O)[C@H](O)[C@H]1OC2=O` showed a concentration for half-maximal inhibition (IC50) of 17.5 µM.

At Tyrosinase [1], `COc1cc(C(=O)OC[C@H]2O[C@H]3c4c(cc(OC)c(OC)c4OC)C(=O)O[C@@H]3[C@@H](O)[C@@H]2O)cc(OC)c1O` had an IC50 greater than 100 µM.

In turn, `COc1ccc(C(=O)O)cc1` [p-ANISIC ACID] displayed an IC50 on Tyrosinase [1] greater than 100 µM.

At Tyrosinase [1], `O=C(O)c1ccc(O)c(O)c1` [PROTOCATECHUIC ACID] came in with an IC50 greater than 100 µM.

The compound `COc1ccc(C(=O)OC[C@H]2O[C@H]3c4c(cc(OC)c(OC)c4OC)C(=O)O[C@@H]3[C@@H](O)[C@@H]2O)cc1` returned an IC50 against Tyrosinase [1] greater than 100 µM.

On Tyrosinase [1], `COc1cc(C(=O)OC[C@H]2O[C@H]3c4c(cc(OC)c(OC)c4OC)C(=O)O[C@@H]3[C@@H](O)[C@@H]2O)ccc1O` yielded an IC50 greater than 100 µM.

With `O=C(O)c1ccccc1` [BENZOIC ACID], on Tyrosinase [1], the IC50 is greater than 100 µM.

Take `COc1cc2c(c(OC)c1OC)[C@H]1O[C@@H](CO)[C@H](O)[C@@H](O)[C@@H]1OC2=O`: the IC50 on Tyrosinase [1] was greater than 100 µM.

Regarding `COc1ccc(C(=O)O)cc1O` [ISOVANILLIC ACID], on Tyrosinase [1], the IC50 was greater than 100 µM.

`COc1ccc(C(=O)OC[C@H]2O[C@H]3c4c(cc(OC)c(OC)c4OC)C(=O)O[C@@H]3[C@@H](O)[C@@H]2O)cc1O` came in with an IC50 against Tyrosinase [1] of 38.8 µM. This compound came in with a Ki at Tyrosinase [5] of 107 µM. In addition, in assay [4], the inhibition result is “Dose-dependent effect”.

On to `COc1ccc(C(=O)OC[C@H]2O[C@H]3c4c(cc(OC)c(OC)c4OC)C(=O)O[C@@H]3[C@@H](O)[C@@H]2O)cc1OC`, for which, on Tyrosinase [1], the IC50 was greater than 100 µM.

With `COc1cc2c(c(OC)c1OC)[C@@H]1O[C@H](COC(=O)c3ccc(O)cc3)[C@@H](O)[C@H](O)[C@H]1OC2=O`, the IC50 at Tyrosinase [1] was 31.5 µM. In addition, the Ki was 121 µM on Tyrosinase [2] and 74.8 µM on Tyrosinase [3]. In assay [4], the inhibition entry is “Dose-dependent effect”.

In turn, `COc1ccc(C(=O)O)cc1OC` [VERATRIC ACID] came in with an IC50 on Tyrosinase [1] greater than 100 µM.

Regarding `COc1c(O)cc2c(c1O)[C@@H]1O[C@H](CO)[C@@H](O)[C@H](O)[C@H]1OC2=O` [BERGENIN], at Tyrosinase [1], the IC50 is greater than 100 µM.

For the compound `COc1cc(C(=O)O)cc(OC)c1O` [SYRINGIC ACID], the IC50 on Tyrosinase [1] is greater than 100 µM.

`COc1cc(OC)cc(C(=O)O)c1` [3,5-DIMETHOXYBENZOIC ACID] returned an IC50 on Tyrosinase [1] greater than 100 µM.

The compound `O=C(O)c1ccc(O)cc1` [PARABEN] came in with a 50% inhibitory concentration (IC50) on Tyrosinase [1] greater than 100 µM.

As to `COc1cc(OC)cc(C(=O)OC[C@H]2O[C@H]3c4c(cc(OC)c(OC)c4OC)C(=O)O[C@@H]3[C@@H](O)[C@@H]2O)c1`, the IC50 against Tyrosinase [1] was greater than 100 µM.
